ChEMBL document CHEMBL3994622, “Design and synthesis of new RAF kinase-inhibiting antiproliferative quinoline derivatives. Part 2: Diarylurea derivatives” (Eur J Med Chem, 2017)

How the values were obtained:
Type in all cases: functional
UACC-62 [1] = assay: Growth inhibition of human UACC62 cells assessed as cell growth at 0.1 uM incubated for 48 hrs by sulforhodamine B assay relative to control; details: UACC-62, 48 h, read-out: Activity
Malme-3M = assay: Growth inhibition of human MALME-3M cells assessed as cell growth at 100 uM incubated for 48 hrs by sulforhodamine B assay relative to control; details: read-out: Activity
OVCAR-3 = assay: Growth inhibition of human OVCAR3 cells assessed as cell growth at 1 uM incubated for 48 hrs by sulforhodamine B assay relative to control; details: OVCAR-3, 48 h, read-out: Activity
LOX IMVI [2] = assay: Growth inhibition of human LOXIMVI cells assessed as cell growth at 0.1 uM incubated for 48 hrs by sulforhodamine B assay relative to control; details: read-out: Activity
A549 = assay: Growth inhibition of human A549/ATCC cells assessed as cell growth at 0.01 uM incubated for 48 hrs by sulforhodamine B assay relative to control; details: A549, 48 h, read-out: Activity
HOP-62 = assay: Growth inhibition of human HOP62 cells assessed as cell growth at 100 uM incubated for 48 hrs by sulforhodamine B assay relative to control; details: HOP-62, 48 h, read-out: Activity
HT-29 = assay: Growth inhibition of human HT-29 cells assessed as cell growth at 10 uM incubated for 48 hrs by sulforhodamine B assay relative to control; details: HT-29, 48 h, read-out: Activity
TK-10 [3] = assay: Growth inhibition of human TK10 cells assessed as cell growth at 100 uM incubated for 48 hrs by sulforhodamine B assay relative to control; details: TK-10, 48 h, read-out: Activity
TK-10 [4] = assay: Growth inhibition of human TK10 cells assessed as cell growth at 0.1 uM incubated for 48 hrs by sulforhodamine B assay relative to control; details: TK-10, 48 h, read-out: Activity
LOX IMVI [5] = assay: Growth inhibition of human LOXIMVI cells assessed as cell growth at 1 uM incubated for 48 hrs by sulforhodamine B assay relative to control; details: read-out: Activity
MDA-MB-435 = assay: Growth inhibition of human MDA-MB-435 cells assessed as cell growth at 10 uM incubated for 48 hrs by sulforhodamine B assay relative to control; details: MDA-MB-435, 48 h, read-out: Activity
KM12 = assay: Growth inhibition of human KM12 cells assessed as cell growth at 100 uM incubated for 48 hrs by sulforhodamine B assay relative to control; details: KM12, 48 h, read-out: Activity
786-0 = assay: Growth inhibition of human 786-0 cells assessed as cell growth at 0.1 uM incubated for 48 hrs by sulforhodamine B assay relative to control; details: 786-0, 48 h, read-out: Activity
HOP-92 = assay: Growth inhibition of human HOP92 cells assessed as cell growth at 0.1 uM incubated for 48 hrs by sulforhodamine B assay relative to control; details: HOP-92, 48 h, read-out: Activity
UO-31 = assay: Growth inhibition of human UO31 cells assessed as cell growth at 0.1 uM incubated for 48 hrs by sulforhodamine B assay relative to control; details: UO-31, 48 h, read-out: Activity
U-251 = assay: Growth inhibition of human U251 cells assessed as cell growth at 1 uM incubated for 48 hrs by sulforhodamine B assay relative to control; details: U-251, 48 h, read-out: Activity
CAKI-1 [6] = assay: Growth inhibition of human Caki1 cells assessed as cell growth at 0.01 uM incubated for 48 hrs by sulforhodamine B assay relative to control; details: CAKI-1, 48 h, read-out: Activity
BT-549 [7] = assay: Growth inhibition of human BT549 cells assessed as cell growth at 1 uM incubated for 48 hrs by sulforhodamine B assay relative to control; details: BT-549, 48 h, read-out: Activity
SK-MEL-5 = assay: Growth inhibition of human SK-MEL-5 cells assessed as cell growth at 0.003 uM incubated for 48 hrs by sulforhodamine B assay relative to control; details: SK-MEL-5, 48 h, read-out: Activity
RPMI-8226 = assay: Growth inhibition of human RPMI8226 cells assessed as cell growth at 30 uM incubated for 48 hrs by sulforhodamine B assay relative to control; details: RPMI-8226, 48 h, read-out: Activity
PC-3 = assay: Growth inhibition of human PC3 cells assessed as cell growth at 30 uM incubated for 48 hrs by sulforhodamine B assay relative to control; details: PC-3, 48 h, read-out: Activity
SN12C = assay: Growth inhibition of human SN12C cells assessed as cell growth at 30 uM incubated for 48 hrs by sulforhodamine B assay relative to control; details: read-out: Activity
DU-145 = assay: Growth inhibition of human DU145 cells assessed as cell growth at 3 uM incubated for 48 hrs by sulforhodamine B assay relative to control; details: DU-145, 48 h, read-out: Activity
COLO 205 [8] = assay: Growth inhibition of human COLO205 cells assessed as cell growth at 0.03 uM incubated for 48 hrs by sulforhodamine B assay relative to control; details: COLO 205, 48 h, read-out: Activity
A498 = assay: Growth inhibition of human A498 cells assessed as cell growth at 3 uM incubated for 48 hrs by sulforhodamine B assay relative to control; details: A498, 48 h, read-out: Activity
BT-549 [9] = assay: Growth inhibition of human BT549 cells assessed as cell growth at 0.03 uM incubated for 48 hrs by sulforhodamine B assay relative to control; details: BT-549, 48 h, read-out: Activity
NCI-H522 = assay: Growth inhibition of human NCI-H522 cells assessed as cell growth at 3 uM incubated for 48 hrs by sulforhodamine B assay relative to control; details: NCI-H522, 48 h, read-out: Activity
SK-OV-3 = assay: Growth inhibition of human SKOV3 cells assessed as cell growth at 30 uM incubated for 48 hrs by sulforhodamine B assay relative to control; details: SK-OV-3, 48 h, read-out: Activity
CAKI-1 [10] = assay: Growth inhibition of human Caki1 cells assessed as cell growth at 0.03 uM incubated for 48 hrs by sulforhodamine B assay relative to control; details: CAKI-1, 48 h, read-out: Activity
UACC-257 = assay: Growth inhibition of human UACC257 cells assessed as cell growth at 0.03 uM incubated for 48 hrs by sulforhodamine B assay relative to control; details: UACC-257, 48 h, read-out: Activity
OVCAR-4 = assay: Growth inhibition of human OVCAR4 cells assessed as cell growth at 30 uM incubated for 48 hrs by sulforhodamine B assay relative to control; details: OVCAR-4, 48 h, read-out: Activity
UACC-62 [11] = assay: Growth inhibition of human UACC62 cells assessed as cell growth at 0.3 uM incubated for 48 hrs by sulforhodamine B assay relative to control; details: UACC-62, 48 h, read-out: Activity
COLO 205 [12] = assay: Growth inhibition of human COLO205 cells assessed as cell growth at 0.003 uM incubated for 48 hrs by sulforhodamine B assay relative to control; details: COLO 205, 48 h, read-out: Activity
Hs-578T = assay: Growth inhibition of human Hs 578T cells assessed as cell growth at 0.03 uM incubated for 48 hrs by sulforhodamine B assay relative to control; details: read-out: Activity

Row | SMILES | growth at 0.1 µM (UACC-62 [1]) | growth at 100 µM (Malme-3M) | growth at 1 µM (OVCAR-3) | growth at 0.1 µM (LOX IMVI [2]) | growth at 0.01 µM (A549) | growth at 100 µM (HOP-62) | growth at 10 µM (HT-29) | growth at 100 µM (TK-10 [3]) | growth at 0.1 µM (TK-10 [4]) | growth at 1 µM (LOX IMVI [5]) | growth at 10 µM (MDA-MB-435) | growth at 100 µM (KM12) | growth at 0.1 µM (786-0) | growth at 0.1 µM (HOP-92) | growth at 0.1 µM (UO-31) | growth at 1 µM (U-251) | growth at 0.01 µM (CAKI-1 [6]) | growth at 1 µM (BT-549 [7]) | growth at 0.003 µM (SK-MEL-5) | growth at 30 µM (RPMI-8226) | also measured
1 | COc1cc2cc(Oc3ccc(NC(=O)Nc4ccc(Cl)c(Cl)c4)cc3)c(C)nc2cc1OC | 89% | -99% | 94% | 96% | 96% | -100% | -49% | -76% | 121% | 85% | 13% | -58% | 95% | 92% | 101% | 83% | 88% | 78% | – | – | –
2 | COc1cc2cc(Oc3ccc(NC(=O)Nc4ccc(Cl)c(C(F)(F)F)c4)cc3)c(C)nc2cc1OC | – | – | – | – | – | – | – | – | – | – | – | – | – | – | – | – | – | – | 100% | -47% | growth at 30 µM (PC-3): -50%; growth at 30 µM (SN12C): -56%; growth at 3 µM (DU-145): 17%; growth at 0.03 µM (COLO 205 [8]): 94%; growth at 3 µM (A498): 1%; growth at 0.03 µM (BT-549 [9]): 83%; growth at 3 µM (NCI-H522): -8%; growth at 30 µM (SK-OV-3): -51%; growth at 0.03 µM (CAKI-1 [10]): 96%; growth at 0.03 µM (UACC-257): 86%; growth at 30 µM (OVCAR-4): -62%; growth at 0.3 µM (UACC-62 [11]): 81%; growth at 0.003 µM (COLO 205 [12]): 97%; growth at 0.03 µM (Hs-578T): 109%
3 | COc1cc2cc(Oc3ccc(NC(=O)Nc4cc(C(F)(F)F)cc(C(F)(F)F)c4)cc3)c(C)nc2cc1OC | 96% | -74% | 27% | 95% | 101% | -92% | -64% | -95% | 89% | 75% | -49% | -74% | 92% | 90% | 73% | 55% | 88% | 86% | – | – | –
4 | Cc1nc2cc(O)c(O)cc2cc1Oc1ccc(NC(=O)Nc2ccc(Cl)c(Cl)c2)cc1 | – | – | – | – | – | – | – | – | – | – | – | – | – | – | – | – | – | – | 98% | -22% | growth at 30 µM (PC-3): 6%; growth at 30 µM (SN12C): -3%; growth at 3 µM (DU-145): 82%; growth at 0.03 µM (COLO 205 [8]): 108%; growth at 3 µM (A498): 79%; growth at 0.03 µM (BT-549 [9]): 94%; growth at 3 µM (NCI-H522): 65%; growth at 30 µM (SK-OV-3): 7%; growth at 0.03 µM (CAKI-1 [10]): 94%; growth at 0.03 µM (UACC-257): 86%; growth at 30 µM (OVCAR-4): 9%; growth at 0.3 µM (UACC-62 [11]): 100%; growth at 0.003 µM (COLO 205 [12]): 107%; growth at 0.03 µM (Hs-578T): 85%
